In patent US5198424A, “Functionally active selectin-derived peptides” (Board of Regents of the University of Oklahoma, priority 1992, dated 1993):
Like-named read-outs stand apart in the source and are kept apart here. Ends that are not written are not given here.

Assays:
GMP-140 [1] = target: T1, GMP-140 (Homo sapiens, UniProt P16109); test: Neutrophil adhesion to purified GMP-140 immobilized on plastic wells (myeloperoxidase readout); assay type: cell-based; design: from tissue; host or cells: outdated human platelet packs (platelet lysate); settings: for % Bound (neutrophils bound to immobilized GMP-140 in the presence of GMP-140-derived peptide): peptide 1.5 mM, cells bound with control C-terminal peptide 761-777 normalized to 100%
T1 sequence (P16109 42-830): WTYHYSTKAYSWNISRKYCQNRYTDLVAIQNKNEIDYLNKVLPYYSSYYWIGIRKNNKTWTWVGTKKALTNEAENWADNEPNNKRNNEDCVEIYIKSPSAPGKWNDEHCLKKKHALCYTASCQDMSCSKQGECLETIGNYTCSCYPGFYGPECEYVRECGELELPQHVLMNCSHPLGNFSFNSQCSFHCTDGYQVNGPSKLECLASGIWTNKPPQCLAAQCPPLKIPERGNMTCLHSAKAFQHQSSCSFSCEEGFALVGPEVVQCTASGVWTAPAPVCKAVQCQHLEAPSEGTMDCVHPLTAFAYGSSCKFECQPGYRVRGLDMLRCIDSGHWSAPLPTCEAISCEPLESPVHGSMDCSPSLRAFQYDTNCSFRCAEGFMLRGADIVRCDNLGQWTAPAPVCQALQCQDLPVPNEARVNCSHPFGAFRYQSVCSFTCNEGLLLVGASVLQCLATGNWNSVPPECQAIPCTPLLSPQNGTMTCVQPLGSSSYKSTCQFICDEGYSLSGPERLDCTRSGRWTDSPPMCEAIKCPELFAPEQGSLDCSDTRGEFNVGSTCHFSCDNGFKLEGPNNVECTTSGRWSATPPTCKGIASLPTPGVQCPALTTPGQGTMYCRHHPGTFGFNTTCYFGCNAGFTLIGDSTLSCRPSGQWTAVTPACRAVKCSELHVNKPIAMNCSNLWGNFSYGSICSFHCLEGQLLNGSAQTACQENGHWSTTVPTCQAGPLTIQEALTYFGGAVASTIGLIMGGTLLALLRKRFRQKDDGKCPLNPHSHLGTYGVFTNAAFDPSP
Source text: Peptides were screened for their ability to inhibit neutrophil adhesion to purified GMP-140 immobilized on plastic wells, using the assay described by Geng, et al., Nature 343, 757-760 (1990).
Human neutrophils are isolated from heparinized whole blood by density gradient centrifugation on Mono-Poly resolving media, Flow Laboratories. Neutrophil suspensions are greater than 98% pure and greater than 95% viable by trypan blue exclusion. For adhesion assays, neutrophils are suspended at a concentration of 2×10^6 cells/ml in Hanks' balanced salt solution containing 1.26 mM Ca^2+ and 0.81 mM Mg^2+ (HBSS, Gibco) with 5 mg/ml human serum albumin (HBSS/HSA). Adhesion assays are conducted in triplicate in 96-well microtiter plates, Corning, incubated at 4° C. overnight with 50 microliters of various protein solutions.
GMP-140 is plated at 5 micrograms/ml and the control proteins: human serum albumin (Alb), platelet glycoprotein IIb/IIIa (IIb), von Willebrand factor (vWF), fibrinogen (FIB), thrombomodulin (TM), gelatin (GEL) or human serum (HS), are added at 50 micrograms/ml. All wells are blocked for 2 h at 22° C. with 300 microliters HBSS containing 10 mg/ml HSA, then washed three times with HBSS containing 0.1% Tween-20 and once with HBSS. Cells (2×10^5 per well were added to the wells and incubated at 22° C. for 20 min. The wells were then filled with HBSS/HSA, sealed with acetate tape (Dynatech), and centrifuged inverted at 150 g for 5 min. After discarding nonadherent cells and supernates, the contents of each well are solubilized with 200 microliters 0.5% hexadecyltrimethylammonium bromide, Sigma, in 50 mM potassium phosphate, pH 6.0, and assayed for myeloperoxidase activity, Ley, et al., Blood 73, 1324-1330 (1989). The number of cells bound was derived from a standard curve of myeloperoxidase activity versus numbers of cells. Under all assay conditions, the cells released less than 5% of total myeloperoxidase and lactate dehydrogenase. Results are presented in Table I. 100% adhesion is that seen in the presence of the C-terminal peptide (amino acid residues 761-777 of GMP-140) as a negative control; this value is the same as controls in which neither peptide nor antibody is added to the cells. Inhibition is read as a lower percent adhesion, so that a value of 5% mean that 95% of the specific adhesion was inhibited.
Peptides from the lectin-like domain of GMP-140 were assayed for their ability to inhibit adhesion of neutrophils to immobilized GMP-140 in the assay described in example 1. Concentrations tested ranged from 0.1 mM to 1.5 mM.

GMP-140 [2] = target: T1, GMP-140; test: ELISA of binding of biotinylated monoclonal antibodies G1, G2, G3 to immobilized GMP-140 with soluble peptide; design: from tissue; host or cells: outdated human platelet packs (platelet lysate); settings: peptide 1.5 mM; for remaining activity at 1500 µM: 2 h
Protocol: Based on competitive ELISAs with the purified protein, G1, G2, and G3 each recognize distinct or only partially overlapping epitopes. 1.5 mM peptide was added to biotinylated mAb at a concentration of 2.5 micrograms/ml, which were then added to the wells containing GMP-140, as described in example 1. Binding was measured by an ELISA with an avidin detection system.
The monoclonal antibodies were biotinylated as follows: to 0.5 ml of purified IgG antibody (1 mg/ml in PBS, pH 7.4) was added 50 μl of 3.2 mM N-hydroxysuccinimide biotin in dimethyl sulfoxide and 50 μl of 1 M NaHCO3. After a 2 hour incubation at room temperature in the dark, the reaction was stopped with 50 μl of 1 M NH4 Cl. The biotinylated antibody was then separated from other components by gel filtration on a PD-10 column equilibrated in PBS. The ELISA was performed as follows; all steps were performed at room temperature.
Biotinylated antibody (2.5 μg/ml) with or without 1.5 mM peptide was incubated with wells coated with GMP-140 as described in example 1. After a 2 hour incubation, the antibody was removed, the wells were washed, and 0.1 ml of horseradish peroxidase-conjugated stepavidin (Pierce), diluted 1:1000 in HBSS/HSA, was added for 30 min. The wells were then washed and 0.1 ml of peroxidase substrate (Pierce) was added for 15 min. The color reaction was read at 405 nm.

[3] = mAb G1 2.5 micrograms/ml, read-out: % Binding of Biotinylated MAbs G1
[4] = mAb G2 2.5 micrograms/ml, read-out: % Binding of Biotinylated MAbs G2
[5] = mAb G3 2.5 micrograms/ml, read-out: % Binding of Biotinylated MAbs G3

66-78: GMP-140 lectin domain amino acids 66-78, overlapping peptide; by b139 alignment KKALTENAENWAD
inhibition of neutrophil adhesion to immobilized GMP-140 (in words) (GMP-140 [1]): inhibited adhesion
inhibition of neutrophil binding to immobilized GMP-140, dependence on concentration (GMP-140 [1]; FIG. 3, 0.1 mM to 1.5 mM peptide): inhibited binding in a dose-dependent manner
inhibition of neutrophil adhesion to immobilized GMP-140 (in words) (GMP-140 [1]; listed as 66 to 78): very active
% Bound (neutrophils bound to immobilized GMP-140 in the presence of GMP-140-derived peptide) (GMP-140 [1]): 6%

ADNEPNNKRNNED [77-89]
% Bound (neutrophils bound to immobilized GMP-140 in the presence of GMP-140-derived peptide) (GMP-140 [1]): 68%

AENWADNE [73-80]
% Bound (neutrophils bound to immobilized GMP-140 in the presence of GMP-140-derived peptide) (GMP-140 [1]): 100%

AENWADNEPNNKR [73-85]
% Bound (neutrophils bound to immobilized GMP-140 in the presence of GMP-140-derived peptide) (GMP-140 [1]): 41%

AENWADNEPNNKRNNED [73-89]
% Bound (neutrophils bound to immobilized GMP-140 in the presence of GMP-140-derived peptide) (GMP-140 [1]): 22%
% Binding of Biotinylated MAbs G1 (GMP-140 [2]; mAb G1 2.5 micrograms/ml): 95%
% Binding of Biotinylated MAbs G2 (GMP-140 [2]; mAb G2 2.5 micrograms/ml): 99%
% Binding of Biotinylated MAbs G3 (GMP-140 [2]; mAb G3 2.5 micrograms/ml): 94%

CQDDGK [SECRETORY 720-721/762-765, reference compound]
remaining activity at 1500 µM (GMP-140 [2]; [3]): 106%
remaining activity at 1500 µM (GMP-140 [2]; [4]): 99%
remaining activity at 1500 µM (GMP-140 [2]; [5]): 104%

CQNRYTDL [19-26]
% Bound (neutrophils bound to immobilized GMP-140 in the presence of GMP-140-derived peptide) (GMP-140 [1]): 92%

CQNRYTDLVAIQ [19-30]
% Bound (neutrophils bound to immobilized GMP-140 in the presence of GMP-140-derived peptide) (GMP-140 [1]): 12%
% Binding of Biotinylated MAbs G3 (GMP-140 [2]; mAb G3 2.5 micrograms/ml): 54%

CQNRYTDLVAIQNKNE [19-34]
% Bound (neutrophils bound to immobilized GMP-140 in the presence of GMP-140-derived peptide) (GMP-140 [1]): 5%
% Binding of Biotinylated MAbs G1 (GMP-140 [2]; mAb G1 2.5 micrograms/ml): 23%
% Binding of Biotinylated MAbs G2 (GMP-140 [2]; mAb G2 2.5 micrograms/ml): 26%
% Binding of Biotinylated MAbs G3 (GMP-140 [2]; mAb G3 2.5 micrograms/ml): 24%

CSDTRGEFNVGST [REPEATS 544-556, reference compound]
remaining activity at 1500 µM (GMP-140 [2]; [3]): 107%
remaining activity at 1500 µM (GMP-140 [2]; [4]): 96%
remaining activity at 1500 µM (GMP-140 [2]; [5]): 111%

GTKKALTNE [64-72]
% Bound (neutrophils bound to immobilized GMP-140 in the presence of GMP-140-derived peptide) (GMP-140 [1]): 92%

KDDGKCPLNPHSHLGTY [C-TERMINUS 761-777, reference compound]
% Bound (neutrophils bound to immobilized GMP-140 in the presence of GMP-140-derived peptide) (GMP-140 [1]): 100%
remaining activity at 1500 µM (GMP-140 [2]; [3]): 100%
remaining activity at 1500 µM (GMP-140 [2]; [4]): 100%
remaining activity at 1500 µM (GMP-140 [2]; [5]): 100%

KNNKTW [55-60]
% Bound (neutrophils bound to immobilized GMP-140 in the presence of GMP-140-derived peptide) (GMP-140 [1]): 70%

LETIGNYT [EGF 134-141]
remaining activity at 1500 µM (GMP-140 [2]; [3]): 97%
remaining activity at 1500 µM (GMP-140 [2]; [4]): 104%
remaining activity at 1500 µM (GMP-140 [2]; [5]): 109%

LKKKHAL [LECTIN 110-116]
remaining activity at 1500 µM (GMP-140 [2]; [3]): 98%
remaining activity at 1500 µM (GMP-140 [2]; [4]): 100%
remaining activity at 1500 µM (GMP-140 [2]; [5]): 108%

NKTWTWV [57-63]
% Bound (neutrophils bound to immobilized GMP-140 in the presence of GMP-140-derived peptide) (GMP-140 [1]): 69%

NNKTW [56-60]
% Bound (neutrophils bound to immobilized GMP-140 in the presence of GMP-140-derived peptide) (GMP-140 [1]): 96%

NRYTDLV [21-27]
% Bound (neutrophils bound to immobilized GMP-140 in the presence of GMP-140-derived peptide) (GMP-140 [1]): 65%

NRYTDLVA [21-28]
% Bound (neutrophils bound to immobilized GMP-140 in the presence of GMP-140-derived peptide) (GMP-140 [1]): 85%
